Laboratory results from US10532985B2, “Heterocycle and carbocycle derivatives having TRKA inhibitory activity” (Shionogi & Co., Ltd., priority 2014, dated 2020).

Target: T1, human TrkA (Homo sapiens, UniProt P04629)
T1 construct: purchased Lifetechnologies PV3144
Assay: Test Example 2-2: Human TrkA Inhibition Assay
Type: biochemical
Settings: class symbols, read-out: IC50_nM
Experimental: Seven point five μL per well of human TrkA (PV3144, Lifetechnologies, final concentration: 1 nmol/L) suspended in the assay buffer (100 mmol/L 4-(2-hydroxyethyl)-1-piperazineethanesulfonic acid (HEPES), 10 mmol/L magnesium chloride, 0.003 vol % Brij-35, 0.004 vol % Tween20 and 1 mmol/L dithiothreitol (DTT)) was applied in a 384 well plate and the plate was pre-incubated for 15 min at room temperature with 0.4 μL of each compound (final concentration: […]) dissolved in DMSO. Then, fluorescent substrate (FL-peptide 27, 760424, PerkinElmer, final concentration: 1.5 μmol/L) and ATP (final concentration […]) dissolved in the assay buffer was added in each well. After the incubation of 120 min at 37° C., fifteen μL of termination buffer (100 mmol/L HEPES, 40 mmol/L ethylenediaminetetraacetic acid (EDTA), 10 mmol/L magnesium chloride, 0.003 vol % Brij-35, 0.004 vol % Tween20, 1 mmol/L DTT and 0.16 vol % Coating Reagent 3) was added in each well to stop the enzyme reaction. Fluorescent intensities (FI) of phosphorylated and non-phosphorylated fluorescent substrates were measured by LabChip EZReader II (Caliper LifeSciences, Inc.), and conversion ratio (CR) was calculated by the following formula-1. The CR in the well applied with DMSO alone was used as a negative control and the CR in the well without applying TrkA was used as a positive control. The inhibitory effect of each compound on TrkA phosphorylation was calculated by the following formula-2. CR (%)=(FI of phosphorylated substrate/(FI of phosphorylated substrate+FI of non-phosphorylated substrate))×100 (Formula-1) Phosphorylation inhibition (%)=(1−(CR with compound treatment−CR of positive control)/(CR of negative control−CR of positive control))×100 (Formula-2) Inhibitory effect on TrkA phosphorylation (%)=(1−(CR in compound treated well−CR in positive control)/(CR in negative control−CR in positive control))×100.
The 50/o inhibitory concentration (IC50) was determined by the logistic regression using the inhibition data in 10 points at a range of 2 μmol/L to 0.1 nmol/L or 200 μmol/L to 10 nmol/L).

T1 sequence (P04629 33-796): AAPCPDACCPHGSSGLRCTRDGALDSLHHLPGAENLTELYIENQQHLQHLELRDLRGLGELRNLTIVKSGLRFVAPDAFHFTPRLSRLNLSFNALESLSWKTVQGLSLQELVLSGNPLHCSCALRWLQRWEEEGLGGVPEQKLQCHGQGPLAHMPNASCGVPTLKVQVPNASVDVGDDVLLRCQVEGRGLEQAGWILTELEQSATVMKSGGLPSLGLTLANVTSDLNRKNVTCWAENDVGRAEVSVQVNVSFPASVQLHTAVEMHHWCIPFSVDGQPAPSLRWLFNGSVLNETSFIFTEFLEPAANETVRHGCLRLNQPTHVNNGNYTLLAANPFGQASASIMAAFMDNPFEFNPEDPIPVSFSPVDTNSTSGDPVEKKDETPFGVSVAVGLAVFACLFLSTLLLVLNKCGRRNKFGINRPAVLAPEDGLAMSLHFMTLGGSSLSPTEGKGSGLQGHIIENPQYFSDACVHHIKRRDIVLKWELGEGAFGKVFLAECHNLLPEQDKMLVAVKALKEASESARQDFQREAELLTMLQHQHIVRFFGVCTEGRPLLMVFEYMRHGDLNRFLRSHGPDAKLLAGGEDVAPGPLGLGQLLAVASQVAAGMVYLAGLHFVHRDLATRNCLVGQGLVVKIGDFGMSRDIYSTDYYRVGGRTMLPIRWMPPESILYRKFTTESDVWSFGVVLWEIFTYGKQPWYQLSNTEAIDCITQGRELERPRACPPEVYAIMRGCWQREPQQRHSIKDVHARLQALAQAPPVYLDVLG

| Compound | IC50 |
| --- | --- |
| COCC[C@@H]1C[C@@H](NC(=O)Nc2c(C)c(OCC3CCN(C)CC3)nn2-c2ccccc2)[C@H](c2ccccc2)C1 [Compound I-272] | < 100 nM |
| COCC[C@@H]1C[C@@H](NC(=O)Nc2c(C)c(-c3cnn(C)c3)nn2-c2ccccc2)[C@H](c2ccc(F)cc2)N1C [Compound I-275] | < 100 nM |
| COCCN1C[C@@H](NC(=O)Nc2c(C)c(-c3cnn(C)c3)nn2-c2ccccc2)[C@H](c2ccc3c(c2)COC3)C1 (racemic) [Compound I-274] | 100 to 1000 nM |
| COCC[C@@H]1C[C@@H](NC(=O)Nc2c(C)c(C3=CCN(C(=O)OC)CC3)nn2-c2ccccc2)[C@H](c2ccccc2)C1 [Compound I-268] | < 100 nM |
| COCC(O)C1C[C@@H](NC(=O)Nc2c(C)c(-c3cnn(C)c3)nn2-c2ccccc2)[C@H](c2ccccc2)C1 (stereo partly shown) [Compound I-271] | 100 to 1000 nM |

Same assay, conditions: human TrkA 1 nmol/L, 120 min at 37° C., read-out: TrkA inhibition IC50

| Compound | IC50 |
| --- | --- |
| COCC[C@@H]1C[C@@H](NC(=O)Nc2c(C)c(-c3cnc(C)nc3)nn2-c2ccccc2)[C@H](c2ccc(F)c(F)c2)N1 [Compound I-256] | 8.2 nM |
| Cc1c(-c2cnn(C)c2)nn(-c2ccccc2)c1NC(=O)N[C@@H]1CN(CCOC2CC2)C[C@H]1c1ccc(F)c(F)c1 [Compound I-252] | 3.6 nM |
| COCCN1C[C@@H](NC(=O)Nc2c(C)c(-c3cnn(C)c3)nn2-c2ccccc2)[C@H](C2=CCCCC2)C1 (racemic) [Compound I-218] | 270 nM |
| Cc1c(-c2cnn(C)c2)nn(-c2ccccc2)c1NC(=O)N[C@@H]1CN(Cc2ccc(Cl)o2)C[C@H]1c1ccc(F)c(F)c1 [Compound I-202] | 0.71 nM |
| Cc1c(-c2cnn(C)c2)nn(-c2ccccc2)c1NC(=O)N[C@@H]1CN(Cc2ccc(Br)o2)C[C@H]1c1ccc(F)c(F)c1 [Compound I-190] | 1.3 nM |
| CC(=O)CN1C[C@@H](NC(=O)Nc2c(C)c(-c3cnn(C)c3)nn2-c2ccccc2)[C@H](c2ccc(F)c(F)c2)C1 [Compound I-185] | 1500 nM |
| COCC[C@@H]1C[C@@H](NC(=O)Nc2c(C)c(-c3cnc(CO)nc3)nn2-c2ccccc2)[C@H](c2ccccc2)C1 [Compound I-269] | 1.3 nM |
| COCC[C@@H]1C[C@@H](NC(=O)Nc2c(C)c(-c3cnn(C)c3)nn2-c2ccccc2)[C@H](c2ccccc2)[C@H]1C [Compound I-241] | 0.9 nM |

Same assay, conditions: human TrkA inhibition, class symbols A/B/C, read-out: IC50_nM

| Compound | IC50 |
| --- | --- |
| COCC(COS(C)(=O)=O)[C@@H]1C[C@@H](NC(=O)Nc2c(C)c(-c3cnn(C)c3)nn2-c2ccccc2)[C@H](c2ccccc2)C1 (stereo partly shown) [Compound I-245] | > 1000 nM |
| COCC[C@@H]1C[C@@H](NC(=O)Nc2c(C)c(-c3cnn(C)c3)nn2-c2ccccc2)[C@H](c2ccccc2)[C@H]1CO [Compound I-226] | 100 to 1000 nM |
| CCOc1nn(-c2ccccc2)c(NC(=O)N[C@@H]2CC(CCOC)C[C@H]2c2ccccc2)c1C (stereo partly shown) [Compound I-183] | < 100 nM |
| COCC(O)[C@H]1C[C@@H](NC(=O)Nc2c(C)c(-c3cnn(C)c3)nn2-c2ccccc2)[C@H](c2ccc(F)c(F)c2)N1C (stereo partly shown) [Compound I-229] | < 100 nM |
| CCOc1nn(-c2ccccc2)c(NC(=O)N[C@@H]2CC(CCOC)C[C@H]2c2ccccc2)c1C (stereo partly shown) [Compound I-212] | < 100 nM |
| COCCC1C[C@@H](NC(=O)Nc2c(C)c(-c3cnn(C)c3)nn2-c2ccccc2)[C@H](c2ccc(F)c(F)c2)N1Cc1ccccc1 (stereo partly shown) [Compound I-196] | > 1000 nM |
| COCCC1C[C@@H](NC(=O)Nc2c(C)c(-c3cnn(C)c3)nn2-c2ccccc2)[C@H](c2ccc(F)c(F)c2)C1 (stereo partly shown) [Compound I-187] | < 100 nM |
| Cc1c(-c2cnn(C)c2)nn(-c2ccccc2)c1NC(=O)N[C@@H]1CN(Cc2cc(Br)co2)C[C@H]1c1ccc(F)c(F)c1 [Compound I-189] | < 100 nM |
| CCNC(=O)c1ccc(-c2nn(-c3ccccc3)c(NC(=O)N[C@@H]3C[C@@H](CCOC)C[C@H]3c3ccccc3)c2C)cc1 [Compound I-264] | < 100 nM |
| Cc1c(-c2cnn(C)c2)nn(-c2ccccc2)c1NC(=O)N[C@@H]1CN(Cc2ccc(C(=O)O)o2)C[C@H]1c1ccc(F)c(F)c1 [Compound I-188] | > 1000 nM |
| Cc1c(-c2cnn(C)c2)nn(-c2ccccc2)c1NC(=O)N[C@@H]1CN(Cc2ccc(CO)o2)C[C@H]1c1ccc(F)c(F)c1 [Compound I-191] | 100 to 1000 nM |
| COCC=C1C[C@@H](NC(=O)Nc2c(C)c(-c3cnn(C)c3)nn2-c2ccccc2)[C@H](c2ccccc2)C1 [Compound I-261] | < 100 nM |
| COCCN1C[C@@H](NC(=O)Nc2c(C)c(-c3cnn(C)c3)nn2-c2ccccc2)[C@H](c2ccc3occc3c2)C1 (racemic) [Compound I-232] | 100 to 1000 nM |
| COCC(C(=O)OC)[C@@H]1C[C@@H](NC(=O)Nc2c(C)c(-c3cnn(C)c3)nn2-c2ccccc2)[C@H](c2ccccc2)C1 (mixture of isomers) [Compound I-243] | > 1000 nM |
| COCCC1C[C@@H](NC(=O)Nc2cc(C(F)(F)F)cnc2-c2ccccc2)[C@H](c2ccccc2)C1 (relative stereo) [Compound I-201] | < 100 nM |
| COCC[C@@H]1C[C@@H](NC(=O)Nc2c(C)c(-c3ccc(C(=O)O)cc3)nn2-c2ccccc2)[C@H](c2ccc(F)c(F)c2)N1C [Compound I-237] | < 100 nM |
| Cc1c(-c2cnn(C)c2)nn(-c2ccccc2)c1NC(=O)N[C@@H]1CN(C(C)C)C[C@H]1c1ccc(F)c(F)c1 [Compound I-194] | > 1000 nM |
| Cc1c(-c2cnn(C)c2)nn(-c2ccccc2)c1NC(=O)N[C@@H]1CN(Cc2csc(Br)n2)C[C@H]1c1ccc(F)c(F)c1 [Compound I-205] | < 100 nM |

| Compound | IC50 |
| --- | --- |
| COCC[C@@H]1C[C@@H](NC(=O)Nc2c(C)c(-c3cnn(C)c3)nn2-c2ccccc2)[C@H](c2ccccc2)[C@H]1C(F)F [Compound I-253] | < 100 nM |
| COCC(C(=O)OC)[C@@H]1C[C@@H](NC(=O)Nc2c(C)c(-c3cnn(C)c3)nn2-c2ccccc2)[C@H](c2ccccc2)C1 (mixture of isomers) [Compound I-244] | 100 to 1000 nM |
| COCC[C@@H]1C[C@@H](NC(=O)Nc2c(C)c(C3=CCNCC3)nn2-c2ccccc2)[C@H](c2ccc(F)c(F)c2)N1 [Compound I-247] | < 100 nM |
| COCCC1C[C@@H](NC(=O)Nc2c(C)c(OCC(C)(C)O)nn2-c2ccccc2)[C@H](c2ccccc2)C1 (relative stereo) [Compound I-182] | 100 to 1000 nM |
| CCOc1nn(-c2ccccc2)c(NC(=O)N[C@@H]2C[C@@H](CCOC)[C@H](CO)[C@H]2c2ccccc2)c1C [Compound I-227] | 100 to 1000 nM |
| Cc1ccc(CN2C[C@@H](NC(=O)Nc3c(C)c(-c4cnn(C)c4)nn3-c3ccccc3)[C@H](c3ccc(F)c(F)c3)C2)o1 [Compound I-193] | < 100 nM |
| Cc1cc(CN2C[C@@H](NC(=O)Nc3c(C)c(-c4cnn(C)c4)nn3-c3ccccc3)[C@H](c3ccc(F)c(F)c3)C2)oc1C [Compound I-203] | 100 to 1000 nM |
| CCc1ccc(CN2C[C@@H](NC(=O)Nc3c(C)c(-c4cnn(C)c4)nn3-c3ccccc3)[C@H](c3ccc(F)c(F)c3)C2)o1 [Compound I-192] | 100 to 1000 nM |
| COCCC1C[C@@H](NC(=O)Nc2cc(-c3ccc(C)nc3)nn2C)[C@H](c2ccccc2)C1 (stereo partly shown) [Compound I-220] | 100 to 1000 nM |
| COCC(c1ccco1)N1C[C@@H](NC(=O)Nc2c(C)c(-c3cnn(C)c3)nn2-c2ccccc2)[C@H](c2ccc(F)c(F)c2)C1 (stereo partly shown) [Compound I-186] | 100 to 1000 nM |
| COCC[C@@H]1C[C@@H](NC(=O)Nc2c(C)c(-c3ccc(OC)nc3)nn2-c2ccccc2)[C@H](c2ccc(F)c(F)c2)N1 [Compound I-257] | < 100 nM |
| CCN1C(CCOC)C[C@@H](NC(=O)Nc2c(C)c(-c3cnn(C)c3)nn2-c2ccccc2)[C@@H]1c1ccc(F)c(F)c1 (stereo partly shown) [Compound I-178] | < 100 nM |
| Cc1c(-c2cnn(C)c2)nn(-c2ccccc2)c1NC(=O)N[C@@H]1CN(Cc2ccccn2)C[C@H]1c1ccc(F)c(F)c1 [Compound I-240] | 100 to 1000 nM |
| COCCC1C[C@@H](NC(=O)Nc2c(C)c(-c3cnn(C)c3)nn2-c2ccccc2)[C@H](c2ccc(F)c(F)c2)N1CCOC (stereo partly shown) [Compound I-197] | > 1000 nM |
| COCCC1C[C@@H](NC(=O)Nc2c(C)c(-c3ccc(C(=O)OC(C)(C)C)cc3)nn2-c2ccccc2)[C@H](c2ccccc2)C1 (stereo partly shown) [Compound I-206] | < 100 nM |
| CCOCCN1C[C@@H](NC(=O)Nc2c(C)c(-c3cnn(C)c3)nn2-c2ccccc2)[C@H](c2ccc(F)c(F)c2)C1 [Compound I-249] | < 100 nM |
| COCCC1C[C@@H](NC(=O)Nc2c(C)c(-c3ccc(C(=O)O)cc3)nn2-c2ccccc2)[C@H](c2ccccc2)C1 (stereo partly shown) [Compound I-207] | < 100 nM |
| COCC[C@@H]1C[C@@H](NC(=O)Nc2c(C)c(C3=CCN(C(=O)OC(C)(C)C)CC3)nn2-c2ccccc2)[C@H](c2ccccc2)C1 [Compound I-265] | < 100 nM |
